Where two headings read alike, the source gives them in different places.

Experimental findings from patent US8703791B2, “3-carboxypropyl-aminotetralin derivatives and related compounds as mu opioid receptor antagonists” (Theravance, Inc., priority 2007, dated 2014) are described below.

Assay [1] addresses T1, human mu opioid receptor (Homo sapiens, UniProt P35372). As to the kind of experiment: Human mu [35S]GTPγS nucleotide exchange assay in membranes from CHO-K1 cells. The settings on record: read-out: intrinsic activity (IA), bound [35S]GTPγS relative to DAMGO (IA=100). In kind it is biochemical.
The subject of assay [2] is loperamide-induced delayed gastric emptying. As to the kind of experiment: Rat gastric emptying assay, reversal of loperamide-induced delayed gastric emptying. To be noted: administered orally, loperamide 1 mg/kg subcutaneous. The assay is classed as in vivo.
Assay [3] concerns the target T1, human mu opioid receptor. As to the kind of experiment: Radioligand binding assay, [3H]-Diprenorphine displacement, human mu opioid receptor.
[4] abbreviates: expressed as a percentage of activation by DAMGO.

T1 sequence (P35372 whole entry): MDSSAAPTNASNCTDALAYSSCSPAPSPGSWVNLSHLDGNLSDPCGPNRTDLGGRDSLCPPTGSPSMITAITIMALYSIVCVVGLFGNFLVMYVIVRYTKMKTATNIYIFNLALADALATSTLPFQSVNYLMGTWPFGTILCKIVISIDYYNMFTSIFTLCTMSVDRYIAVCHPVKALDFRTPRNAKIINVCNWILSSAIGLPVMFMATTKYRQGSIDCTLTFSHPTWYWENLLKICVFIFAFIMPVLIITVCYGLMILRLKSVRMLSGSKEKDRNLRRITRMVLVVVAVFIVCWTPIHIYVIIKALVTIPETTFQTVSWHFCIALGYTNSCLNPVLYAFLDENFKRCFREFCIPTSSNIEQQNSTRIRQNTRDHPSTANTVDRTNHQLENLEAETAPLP

Turning to `CCC1(CC)c2cc(C(N)=O)ccc2C[C@H](OC)[C@H]1NCC[C@H](CC1CCCCC1)C(=O)OC` [Example 2, (S)-4-((2S,3S)-7-Carbamoyl-1,1-diethyl-3-methoxy-1,2,3,4-tetrahydro-naphthalen-2-ylamino)-2-cyclohexylmethyl-butyric acid methyl ester], at human mu opioid receptor [1] (setting [4]), the Emax is -5%. Still for that read-out and setting: as for `CCC1(CC)c2cc(C(N)=O)ccc2CC(OC)[C@H]1NCC[C@@H](CC1CCCCC1)C(=O)OC` (mixture of isomers) [Example 6, (R)-4-((2S,3SR)-7-Carbamoyl-1,1-diethyl-3-methoxy-1,2,3,4-tetrahydro-naphthalen-2-ylamino)-2-cyclohexylmethyl-butyric acid methyl ester], the figure is 19%.

Regarding `CCC1(CC)c2cc(C(N)=O)ccc2C[C@H](OC)[C@H]1NCC[C@H](CC1CCCCC1)C(=O)O` [Example 1, (S)-4-((2S,3S)-7-Carbamoyl-1,1-diethyl-3-methoxy-1,2,3,4-tetrahydro-naphthalen-2-ylamino)-2-cyclohexylmethyl-butyric acid], in assay [2], the “ID50, dose required for 50% reversal of the effects of loperamide” value (“ID50, dose required for 50% reversal” below) is 0.09 mg/kg. On to `CCC1(CC)c2cc(C(N)=O)ccc2C[C@H](OC)[C@H]1NCC[C@H](CC(C)C)C(=O)OC` [Example 7-A, (S)-2-[2-((2S,3S)-7-Carbamoyl-1,1-diethyl-3-methoxy-1,2,3,4-tetrahydro-naphthalen-2-ylamino)-ethyl]-4-methyl-pentanoic acid methyl ester], for which the Emax at human mu opioid receptor [1] amounted to 8%.

For `CCCCC[C@@H](CCN[C@@H]1[C@@H](OC)Cc2ccc(C(N)=O)cc2C1(CC)CC)C(=O)O` [Example 9, (S)-2-[2-((2S,3S)-7-Carbamoyl-1,1-diethyl-3-methoxy-1,2,3,4-tetrahydro-naphthalen-2-ylamino)-ethyl]-heptanoic acid], the “ID50, dose required for 50% reversal” value in assay [2] is 0.10 mg/kg. For the same molecule, on human mu opioid receptor [1] (setting [4]), the Emax is -2%. Also, on human mu opioid receptor [3] ([3H]-Diprenorphine 0.5 nM, CHO-K1 membranes, read-out: pKi at the human mu opioid receptor (converted)), the Ki was 0.631 nM.

For the molecule `CCC1(CC)c2cc(C(N)=O)ccc2C[C@H](OC)[C@H]1NCC[C@@H](CC1CCCCC1)C(=O)O` [Example 10-G, (R)-4-((2S,3S)-7-Carbamoyl-1,1-diethyl-3-methoxy-1,2,3,4-tetrahydro-naphthalen-2-ylamino)-2-cyclohexylmethyl-butyric acid], the “ID50, dose required for 50% reversal” value in assay [2] amounted to 0.12 mg/kg. The Emax at human mu opioid receptor [1] amounted to 7%. The molecule also had a Ki at human mu opioid receptor [3] of 0.251 nM.

Take `CCC1(CC)c2cc(O)ccc2C[C@H](OC)[C@H]1NCC[C@H](CC1CCCCC1)C(=O)O` [Example 12, (S)-2-Cyclohexylmethyl-4-((2S,3S)-1,1-diethyl-7-hydroxy-3-methoxy-1,2,3,4-tetrahydro-naphthalen-2-ylamino)-butyric acid]: in assay [2], the “ID50, dose required for 50% reversal” value turned out to be 0.05 mg/kg. Also, the Emax on human mu opioid receptor [1] was -5%. This molecule also showed a Ki at human mu opioid receptor [3] of 0.2 nM. Regarding `CCC1(CC)c2cc(C(N)=O)ccc2C[C@@H](OC)[C@@H]1NCC[C@@H](CC1CCCCC1)C(=O)OC` [Example 5, (R)-4-((2R,3R)-7-Carbamoyl-1,1-diethyl-3-methoxy-1,2,3,4-tetrahydro-naphthalen-2-ylamino)-2-cyclohexylmethyl-butyric acid methyl ester], at human mu opioid receptor [1] (setting [4]), the Emax is 17%.
